Drawing on PubChem BioAssay (NCI), this text covers TGI and GI50 for eleven compounds.

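Compound exposure: 48 hours, 5 concentrations, 96-well plates. Abbreviation: GI50, concentration required for 50% inhibition of growth. Definition used: TGI = concentration required for complete inhibition of growth.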

Test systems include COLO 205 colon; ACHN renal; MDA-MB-231 breast; CAKI-1 renal; OVCAR-4 ovarian; MCF7 breast; UACC-257 melanoma; A549 NSCLC; SK-MEL-28 melanoma; HS 578T breast; DU-145 prostate.
What all share (assay): DTP human tumour cell line panel, 48 h

The term TGI denotes the concentration giving total growth inhibition. High values mean less potent growth arrest, low ones more potent growth arrest. As for `COC1OC(CO)C(O)C(OC(=O)c2cc(O)c(O)c(O)c2)C1OC(=O)c1cc(O)c(O)c(O)c1` (stereo unspecified), the concentration for total growth inhibition (TGI) in the experiment on COLO 205 colon is > 100 µM; with ACHN renal, > 100 µM; in the experiment on MDA-MB-231 breast it was > 100 µM; in the experiment with CAKI-1 renal, > 100 µM; in the experiment on OVCAR-4 ovarian it was 90.4 µM; in the experiment with MCF7 breast it was > 100 µM. The TGI with UACC-257 melanoma, with A549 NSCLC, in the experiment on SK-MEL-28 melanoma, with HS 578T breast and in the experiment on DU-145 prostate was > 100 µM each time.
For the compound `O=C(Nc1nc(C23CC4CC(CC(C4)C2)C3)cs1)c1cc2cc(Br)cc(Br)c2oc1=O`, the TGI in the experiment with COLO 205 colon, in the experiment on ACHN renal, in the experiment with MDA-MB-231 breast, in the experiment with CAKI-1 renal, with OVCAR-4 ovarian and in the experiment on MCF7 breast was > 100 µM each time. Moreover, the TGI with UACC-257 melanoma is > 100 µM; in the experiment with A549 NSCLC it was > 100 µM; in the experiment on SK-MEL-28 melanoma, > 100 µM; in the experiment on HS 578T breast it was 79.7 µM; in the experiment on DU-145 prostate it was > 100 µM.
As usually defined, the GI50 is the concentration giving 50% growth inhibition. Consider `C=C[C@H]1CN2CCc3c([nH]c4c([C@H]5CCCN5C)c(O)ccc34)[C@@H]2C[C@@H]1C[C@H]1c2[nH]c3ccccc3c2CCN1C`, for which the concentration for total growth inhibition (TGI) with COLO 205 colon turned out to be 2.83 µM; with ACHN renal it was 3.33 µM; in the experiment with MDA-MB-231 breast, 3.41 µM; in the experiment with CAKI-1 renal, 3.17 µM; in the experiment on OVCAR-4 ovarian, 3.27 µM; in the experiment with MCF7 breast it was 2.22 µM. The TGI came out at 3.54 µM in the experiment on UACC-257 melanoma; 3.08 µM with A549 NSCLC; 3.3 µM in the experiment on SK-MEL-28 melanoma; 4.59 µM in the experiment with HS 578T breast; 3 µM in the experiment on DU-145 prostate. The GI50 in the experiment on MCF7 breast is 1.05 µM.
For the compound `Cc1ccc(S(=O)(=O)NNC(=S)Nc2cccc3ccccc23)cc1`, the TGI in the experiment with COLO 205 colon is > 100 µM; in the experiment on ACHN renal, 79.9 µM; with MDA-MB-231 breast, > 100 µM; with CAKI-1 renal it was > 100 µM; with OVCAR-4 ovarian it was 66.8 µM; in the experiment on MCF7 breast, > 100 µM. Moreover, the TGI in the experiment with UACC-257 melanoma was 52.1 µM; in the experiment on A549 NSCLC, > 100 µM; in the experiment on SK-MEL-28 melanoma, > 100 µM; in the experiment with HS 578T breast, > 100 µM; in the experiment on DU-145 prostate, > 100 µM.
With `CN(C)CCNc1ccc2c(=O)n(CCN(C)C)c(=O)n3c4ccc(N)cc4c(=O)c1c23`, the concentration for total growth inhibition (TGI) turned out to be 1.26 µM in the experiment on COLO 205 colon; 0.734 µM in the experiment with ACHN renal; 0.866 µM in the experiment on MDA-MB-231 breast; 4.76 µM with CAKI-1 renal; 0.996 µM in the experiment on OVCAR-4 ovarian; 0.242 µM in the experiment on MCF7 breast. In addition, the TGI is 2.51 µM with UACC-257 melanoma; 0.599 µM in the experiment on A549 NSCLC; 0.819 µM in the experiment on SK-MEL-28 melanoma; 1.3 µM in the experiment with HS 578T breast; 2.08 µM with DU-145 prostate.
For the compound `O=C1/C(=C\c2cccc(Oc3ccccc3)c2)SC(c2ccccc2)N1c1ccc(Cl)cc1` (stereo unspecified), the TGI was > 80.9 µM with COLO 205 colon; > 100 µM in the experiment on ACHN renal; > 100 µM in the experiment on MDA-MB-231 breast; > 100 µM in the experiment with CAKI-1 renal; > 100 µM in the experiment with OVCAR-4 ovarian; > 100 µM with MCF7 breast. In addition, the TGI with UACC-257 melanoma, in the experiment with A549 NSCLC, in the experiment with SK-MEL-28 melanoma, with HS 578T breast and in the experiment with DU-145 prostate was > 100 µM in each case.
For `CCN(CC)CCS(=O)c1c2cc(OC)ccc2nc2ccc(OC)cc12` (stereo unspecified), the TGI in the experiment on COLO 205 colon was 3.99 µM; with ACHN renal, 5.44 µM; in the experiment on MDA-MB-231 breast it was 28.4 µM; with CAKI-1 renal, 23.9 µM; with OVCAR-4 ovarian, 29.7 µM; in the experiment on MCF7 breast, > 24.9 µM. For the same compound, the total growth inhibition concentration (TGI) with UACC-257 melanoma turned out to be 17.6 µM; in the experiment with A549 NSCLC, 55.3 µM; in the experiment on SK-MEL-28 melanoma it was 34.4 µM; with HS 578T breast it was 29.1 µM; with DU-145 prostate, 4.04 µM.
On to `COc1ccc(OC)c2nc3c(C(=O)NCCN(C)C)cccc3nc12`, for which the TGI in the experiment on COLO 205 colon was 11.9 µM; in the experiment on ACHN renal it was > 100 µM; with MDA-MB-231 breast, 19.3 µM; with CAKI-1 renal, > 74 µM; with OVCAR-4 ovarian it was 11.1 µM; in the experiment on MCF7 breast, > 29.8 µM. Moreover, the TGI was 15.3 µM in the experiment on UACC-257 melanoma; > 34.7 µM in the experiment with A549 NSCLC; 22.2 µM in the experiment on SK-MEL-28 melanoma; 29.6 µM in the experiment on HS 578T breast; > 100 µM in the experiment on DU-145 prostate.
Turning to `[N-]=[N+]=Nc1ccc2c(c1)Sc1ccccc1N2CCCCCl`, the TGI is 82.3 µM with COLO 205 colon; > 100 µM in the experiment with ACHN renal; > 100 µM in the experiment with MDA-MB-231 breast; > 100 µM in the experiment on CAKI-1 renal; > 100 µM in the experiment on OVCAR-4 ovarian; > 100 µM with MCF7 breast. Moreover, the concentration for total growth inhibition (TGI) in the experiment on UACC-257 melanoma, in the experiment with A549 NSCLC, with SK-MEL-28 melanoma, with HS 578T breast and in the experiment with DU-145 prostate was > 100 µM throughout.
Take `CCCCCCCCCCCCCCCCP(=O)(O)OP(=O)(O)OCC1OC(n2cnc3c(N)ncnc32)C(O)C1O` (stereo unspecified): the TGI with COLO 205 colon was > 100 µM; with ACHN renal, 62.1 µM; in the experiment with MDA-MB-231 breast it was > 100 µM; in the experiment on CAKI-1 renal, 64.4 µM; in the experiment on OVCAR-4 ovarian, > 100 µM; in the experiment on MCF7 breast, 45.7 µM. For the same compound, the total growth inhibition concentration (TGI) in the experiment with UACC-257 melanoma was 60 µM; with A549 NSCLC, > 100 µM; with SK-MEL-28 melanoma, > 100 µM; with HS 578T breast it was 89.1 µM; in the experiment on DU-145 prostate, > 100 µM.
As to `NC1=NC(OCC2(CO)CCC2)C=C(NCC2(CO)CCC2)N1` (stereo unspecified), the concentration for total growth inhibition (TGI) with COLO 205 colon, with MDA-MB-231 breast, with CAKI-1 renal, in the experiment on OVCAR-4 ovarian, in the experiment with MCF7 breast and with UACC-257 melanoma was > 100 µM in each case. The concentration for total growth inhibition (TGI) in the experiment with A549 NSCLC, with SK-MEL-28 melanoma, in the experiment with HS 578T breast and in the experiment on DU-145 prostate was > 100 µM in each case.
